Test results as given in PubChem BioAssay (NCI).
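Tested at 5 concentrations; 48 h exposure; 96-well plates; endpoints linearly interpolated, else capped at highest concentration. TGI marks complete inhibition of growth.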

Experiments:
Test in all cases: NCI-60 cell line screen, 48 h
HL-60(TB) leukemia = system: HL-60(TB) leukemia
SN12C renal = system: SN12C renal
RXF 393 renal = system: RXF 393 renal
SK-MEL-28 melanoma = system: SK-MEL-28 melanoma
A498 renal = system: A498 renal
SK-MEL-5 melanoma = system: SK-MEL-5 melanoma
COLO 205 colon = system: COLO 205 colon
IGROV1 ovarian = system: IGROV1 ovarian
A549 NSCLC = system: A549 NSCLC
PC-3 prostate = system: PC-3 prostate
SF-268 CNS = system: SF-268 CNS
LOX IMVI melanoma = system: LOX IMVI melanoma
NCI-H522 lung = system: NCI-H522 lung
M14 melanoma = system: M14 melanoma
KM12 colon = system: KM12 colon
MDA-N = system: MDA-N
SK-MEL-2 melanoma = system: SK-MEL-2 melanoma
OVCAR-3 ovarian = system: OVCAR-3 ovarian
786-0 renal = system: 786-0 renal
UACC-62 melanoma = system: UACC-62 melanoma
NCI-H23 lung = system: NCI-H23 lung
U251 CNS = system: U251 CNS
HOP-92 NSCLC = system: HOP-92 NSCLC
T-47D breast = system: T-47D breast
SF-295 CNS = system: SF-295 CNS
MDA-MB-435 = system: MDA-MB-435
SK-OV-3 ovarian = system: SK-OV-3 ovarian
HOP-62 NSCLC = system: HOP-62 NSCLC
HCT-15 colon = system: HCT-15 colon
EKVX NSCLC = system: EKVX NSCLC
OVCAR-5 ovarian = system: OVCAR-5 ovarian
OVCAR-8 ovarian = system: OVCAR-8 ovarian
HT29 colon = system: HT29 colon
HS 578T breast = system: HS 578T breast
NCI-H460 lung = system: NCI-H460 lung
TK-10 renal = system: TK-10 renal
SW-620 colon = system: SW-620 colon
SNB-19 CNS = system: SNB-19 CNS
K-562 leukemia = system: K-562 leukemia
DU-145 prostate = system: DU-145 prostate
OVCAR-4 ovarian = system: OVCAR-4 ovarian
CAKI-1 renal = system: CAKI-1 renal
ACHN renal = system: ACHN renal
SF-539 CNS = system: SF-539 CNS
NCI-H226 lung = system: NCI-H226 lung
MALME-3M melanoma = system: MALME-3M melanoma
NCI/ADR-RES ovarian = system: NCI/ADR-RES ovarian
SNB-75 CNS = system: SNB-75 CNS
MCF7 breast = system: MCF7 breast
HCC-2998 colon = system: HCC-2998 colon
HCT-116 colon = system: HCT-116 colon
UACC-257 melanoma = system: UACC-257 melanoma

What does the source list for CCOP(=O)(C=C=C1CCC2[C@@H]3CCc4cc(OC)ccc4C3CC[C@]12C)OCC (some centres not stated)?
TGI (HL-60(TB) leukemia): 2.87 µM; TGI (SN12C renal): 23 µM; TGI (RXF 393 renal): 14.8 µM; TGI (SK-MEL-28 melanoma): 23.9 µM; TGI (A498 renal): 25.9 µM; TGI (SK-MEL-5 melanoma): 14.2 µM; TGI (COLO 205 colon): 22.7 µM; TGI (IGROV1 ovarian): 23.6 µM; TGI (A549 NSCLC): 18.4 µM; TGI (PC-3 prostate): 15 µM; TGI (SF-268 CNS): 28 µM; TGI (LOX IMVI melanoma): 24.8 µM; TGI (NCI-H522 lung): 18.9 µM; TGI (M14 melanoma): 24.3 µM; TGI (KM12 colon): 26.2 µM; TGI (MDA-N): 26 µM; TGI (SK-MEL-2 melanoma): 26.5 µM; TGI (OVCAR-3 ovarian): 24.2 µM; TGI (786-0 renal): 25.3 µM; TGI (UACC-62 melanoma): 18.2 µM; TGI (NCI-H23 lung): 20.8 µM; TGI (U251 CNS): 25.5 µM; TGI (HOP-92 NSCLC): 22.5 µM; TGI (T-47D breast): 26.6 µM; TGI (SF-295 CNS): 19.7 µM; TGI (MDA-MB-435): 25.5 µM; TGI (SK-OV-3 ovarian): 31.8 µM; TGI (HOP-62 NSCLC): 30 µM; TGI (HCT-15 colon): 24.8 µM; TGI (EKVX NSCLC): 21.9 µM; TGI (OVCAR-5 ovarian): 31.4 µM; TGI (OVCAR-8 ovarian): 29.3 µM; TGI (HT29 colon): 17.7 µM; TGI (HS 578T breast): 40.3 µM; TGI (NCI-H460 lung): 27.6 µM; TGI (TK-10 renal): 25.6 µM; TGI (SW-620 colon): 29.2 µM; TGI (SNB-19 CNS): 28.3 µM; TGI (K-562 leukemia): 10.7 µM; TGI (DU-145 prostate): 30 µM; TGI (OVCAR-4 ovarian): 21.3 µM; TGI (CAKI-1 renal): 26.6 µM; TGI (ACHN renal): 21.9 µM; TGI (SF-539 CNS): 29 µM; TGI (NCI-H226 lung): 21.6 µM; TGI (MALME-3M melanoma): 30.3 µM; TGI (NCI/ADR-RES ovarian): 24.2 µM; TGI (SNB-75 CNS): 25.5 µM; TGI (MCF7 breast): 20.7 µM; TGI (HCC-2998 colon): 25.2 µM; TGI (HCT-116 colon): 19.2 µM; TGI (UACC-257 melanoma): 19.6 µM
